Data on eleven molecules can be found in PubChem BioAssay AID1985 (Southern Research Specialized Biocontainment Screening …, 2009).

For this test, the system named is S. Typhi PhoP-promoter GFP reporter, fluorescence, 4 h. Briefly: PhoP regulon inhibitor project modified counter assay, GFP fluorescence readout, dose response (AID 1985).
As usually defined, the IC50 is the concentration needed to halve the response being measured. As to `O/N=C/c1ccc(OCc2ccccc2)c(Cl)c1`, the IC50 is 130 µM.

Consider `CCC(C)N1CCC2(CC1)N=c1c(c3c4c5c(C)c(O)c3c(O)c1=NC(=O)C(C)=CC=C[C@H](C)[C@H](O)[C@@H](C)[C@@H](O)[C@@H](C)[C@H](OC(C)=O)[C@H](C)[C@@H](OC)C=CO[C@@](C)(O5)C4=O)N2` (stereo partly specified), for which the IC50 was 9.09 µM.

As for `O[C@@H](c1cc(C(F)(F)F)nc2c(C(F)(F)F)cccc12)[C@H]1CCCCN1`, the half-maximal inhibitory concentration (IC50) was 90.6 µM.

As to `CCCCCCCNC(=O)C1(CC2CC(c3ccc(Cl)cc3)=NO2)CCNCC1` (stereo unspecified), the IC50 was 39 µM.

On to `O=c1cc(-c2ccc(O)cc2)oc2c(O)c(O)c(O)c(O)c12`, for which the IC50 was 40.2 µM.

For `CCc1nccc2c1[nH]c1ccccc12`, the IC50 was 123 µM.

In the case of `O=C(N/N=C/c1ccc([N+](=O)[O-])o1)C(O)c1ccccc1` (stereo unspecified), the IC50 was 13.1 µM.

For `CCn1cc(C(=O)O)c(=O)c2cc(F)c(N3CCN(C)CC3)cc21`, the IC50 is 0.427 µM.

Take `NC1=NC[C@H](CC2CCCCC2)N1CCc1cc(C(F)(F)F)cc(C(F)(F)F)c1`: the IC50 is 37.6 µM.

With `c1ccc2c(NCCc3c[nH]c4ccccc34)c3ccccc3nc2c1`, the IC50 is 75.7 µM.

Regarding `CCN(CC)C(=S)SSC(=S)N(CC)CC`, the IC50 is 21.8 µM.
